Source: EPA's ToxRefDB 2

Assays:
[1] = tested on: rat; details: Sub-acute repeat dose toxicity, Oral, Gavage/Intubation, dose end: 4 day, group: systemic
[2] = tested on: rat; details: Sub-acute repeat dose toxicity, Oral, Gavage/Intubation, dose end: 4 day, group: systemic; remark: listed apart in the source
[3] = tested on: rat; details: Sub-acute repeat dose toxicity, Oral, Gavage/Intubation, dose end: 4 day, group: systemic; remark: listed apart in the source
[4] = tested on: rat; details: Sub-acute repeat dose toxicity, Oral, Gavage/Intubation, dose end: 4 day, group: systemic; remark: listed apart in the source
[5] = tested on: rat; details: Subchronic oral toxicity in rodents, fischer, Feed, dose end: 26 week, group: systemic
[6] = tested on: rat; details: Carcinogenicity, fischer, Oral, Feed, dose end: 78 week, group: systemic
[7] = tested on: mouse; details: Carcinogenicity, b6c3f1, Oral, Feed, dose end: 80 week, group: systemic
[8] = tested on: rat; details: Sub-acute repeat dose toxicity, sprague dawley, Oral, Gavage/Intubation, dose end: 4 week, group: systemic
[9] = tested on: dog; details: Sub-acute repeat dose toxicity; beagle; Oral; Gavage/Intubation; dose end: 4 week; group: systemic; systemic / clinical chemistry / alanine aminotransferase (alt/sgpt) / alanine aminotransferase (alt/sgpt) + systemic / clinical chemistry / …
[10] = systemic / in life observation / clinical signs / abnormal respiratory sounds + systemic / in life observation / clinical signs / fur (…
[11] = systemic / pathology microscopic / liver / necrosis
[12] = systemic / organ weight / liver / absolute
[13] = systemic / organ weight / liver / absolute + systemic / pathology microscopic / liver / necrosis
[14] = systemic / clinical chemistry / glucose / glucose + systemic / clinical chemistry / potassium / potassium + systemic / clinical chemistry / …
[15] = systemic / hematology / hematocrit (hct) / hematocrit (hct) + systemic / hematology / leukocyte (wbc) count differential / leukocyte (wbc…
[16] = systemic / in life observation / body weight / body weight + systemic / in life observation / mortality / mortality + systemic / pathology …
[17] = systemic / pathology microscopic / liver / hepatocellular carcinoma + systemic / pathology microscopic / liver / neoplastic nodule + …
[18] = systemic / pathology microscopic / blood / lymphoma malignant + systemic / pathology microscopic / liver / hepatocellular carcinoma
[19] = systemic / pathology microscopic / liver / hepatocellular carcinoma
[20] = systemic / clinical chemistry / alanine aminotransferase (alt/sgpt) / alanine aminotransferase (alt/sgpt) + systemic / clinical chemistry / …
[21] = systemic / organ weight / liver / absolute + systemic / organ weight / liver / relative to body weight + systemic / organ weight / liver / …

CNCc1ccc(S(C)(=O)=O)cc1Oc1ccc(Cl)c(C)c1C
LOAEL [1, 10]: > 500 mg/kg/day | NOAEL [1, 10]: ≥ 500 mg/kg/day | LEL [1, 11]: 30 mg/kg/day | NEL [1, 11]: < 30 mg/kg/day | LOAEL [2, 10]: > 500 mg/kg/day | NOAEL [2, 10]: ≥ 500 mg/kg/day | LEL [2, 11]: 30 mg/kg/day | NEL [2, 11]: < 30 mg/kg/day | LOAEL [3, 12]: > 100 mg/kg/day | NOAEL [3, 12]: ≥ 100 mg/kg/day | LEL [3, 13]: 30 mg/kg/day | NEL [3, 13]: < 30 mg/kg/day | LOAEL [4, 10]: > 500 mg/kg/day | NOAEL [4, 10]: ≥ 500 mg/kg/day | LEL [4, 11]: 30 mg/kg/day | NEL [4, 11]: < 30 mg/kg/day

Nc1ccc2c(c1)C(=O)c1ccccc1C2=O [2-Aminoanthraquinone]
LEL [5, 14]: 500 mg/kg/day | NEL [5, 14]: < 500 mg/kg/day | LOAEL [5, 15]: > 1000 mg/kg/day | NOAEL [5, 15]: ≥ 1000 mg/kg/day | LEL [6, 16]: 100 mg/kg/day | NEL [6, 16]: < 100 mg/kg/day | LOAEL [6, 17]: > 345 mg/kg/day | NOAEL [6, 17]: ≥ 345 mg/kg/day | LOAEL [7, 18]: > 1500 mg/kg/day | NOAEL [7, 18]: ≥ 1500 mg/kg/day | LEL [7, 19]: 750 mg/kg/day | NEL [7, 19]: < 750 mg/kg/day

O=C(NC(=O)c1cc(F)c(F)cc1Cl)Nc1cc(F)ccc1N1CCC(C(=O)O)CC1 [AVE2865]
LOAEL [8, 20]: 35 mg/kg/day | NOAEL [8, 20]: 5 mg/kg/day | LEL [8, 21]: 5 mg/kg/day | NEL [8, 21]: < 5 mg/kg/day | LEL [9]: 1 mg/kg/day | LOAEL [9]: > 10 mg/kg/day | NEL [9]: < 1 mg/kg/day | NOAEL [9]: ≥ 10 mg/kg/day
